Experimental data published in patent US20220281835A1, “PHENOL DERIVATIVES FOR USE AS ANTIMICROBIAL, ANTIBACTERIAL, BACTERICIDE” (SPECIAL PRODUCT'S LINE S.P.A., priority 2019, published 2022).
Converted amounts (≈) assume the structure as drawn.

Assays:
[1] = tested on: Enterococcus faecalis strain 2 (collection); assay: MIC/MBC broth-dilution (micromethod), CLSI; format: cell-based; settings: for MBC: E. FAECALIS strain 2, kills 99,9% of initial population
Description: (§1) Determination of Minimal Inhibitory Concentration (MIC), Minimal Bactericidal Concentration (MBC), bactericidal curves and killing rate on Gram positive and Gram negative bacteria strains, for the evaluation of the bactericidal activity of compounds of example 1 (n. 1 to 14).
(§2) Sensitivity tests have been performed in broth-dilution (micromethod) with the purpose to test the possible bacteriostatic and/or bactericidal power in different compounds, in accordance with CLSI guidelines (Clinical and Laboratory Standards Institute). In details, phenotypic methods based on in vitro MIC and MBC determination have been performed on previously isolated bacterial strains, identified and characterized at the level of their antibiotic susceptibility profile. According to MIC and MBC data, the Killing Rate was calculated as the ratio between MBC and MIC on which basis it is possible to define the compounds tested as bactericides (killing rate=1-4), or bacteriostatic (killing rate >4).
(§3) Preparation of the solution containing molecules: for each molecule to be tested, solutions were made as DMSO Stock, with a concentration of 2.560 mg/ml, used to test 12 dilutions with the following scalar drug concentrations: 512-256-128-64-32-16-8-4-2-1-0.5-0.25 μg/ml. The scalar dilutions were prepared directly on plates by using Mueller Hinton Broth (MHB) as a solvent.
(§4) Bacterial suspension preparation: cryostrains preserved at −80° C. were recovered by incubation in growth medium (Brain Heart Infusion Broth, BHI) for 24-48 hours at 37° C. followed by passages in agar growth medium (Columbia Blood Agar). Colonies with less than 30 hours are suspended in MHB with the purpose to prepare a bacterial suspension with a turbidity of 0.5 MF, containing approximately 1.5×10^8 cfu/ml. This injection is additionally diluted in MHB until reaching a final concentration of 5×10^5 cfu/ml (range 3-7×10^5 cfu/ml). Identical volumes of this bacterial suspension are added on a plate, for each well containing drug scalar dilutions, to obtain a final concentration between 512 a 0.25 μg/ml. The set up of bacterial suspensions as well as the passage on slate has always been performed within 30 minutes, in order not to alter the concentration of the bacterial suspension. Simultaneously, check in broth-microdilution only with solvent (in order to exclude that the effect of growth inhibition might be due to the drug solution solvent), positive growth control in absence of DMSO and drug, and negative purity control only with injection broth are performed. As a consequence the slate is incubated at 37° C. for 24 and 48 hours in aerobes. The 24 hours MIC is considered as the minimum drug concentration able to inhibit bacterial growth, which makes it possible to observe the absence of bacterial growth and the absence of turbidity. The same observations are valid to evaluate 48 hours MIC. After the incubation, an equal volume of bacterial suspension from each well is plated on agar growth medium and incubated for 24-48 hours at a temperature of 37° C. in aerobes, in order to define the MBC after the incubation. The MBC is evaluated as the minimum concentration of drug able to kill the 99,9% of the initial bacterial population.
(§5) Bacterial strains: the bactericidal and/or bacteriostatic power of the synthesized compounds can be determined by using standard reference strains such as: • 1. S. Aureus ATCC 25923 res kan, tob, res streptogramine (sga-sgb, efflux), res mupirocina (at low level), res trimetoprim; • 2. S. Aureus strain 1 (collection) mec a+, res kan tob gen, res quinolones, lincosamides, res streptogramine (sga-sgb), mlsb+sa constituent, mlsb constituent, res mupirocine (low level), res trimetoprim; • 3. S. Aureus strain 2 (collection) acquired penicillinase, res kan tob, res streptogramine (sga-sgb, efflux), res mupirocine (low level), res trimetoprim; • 4. Enterococcus faecalis ATCC 51299 (str+gen res at high level, mlsb res, simil van b res); • 5. […]

[2] = tested on: S. Aureus strain 1 (collection) mec a+; assay: MIC/MBC broth-dilution (micromethod), CLSI; format: cell-based; settings: Staphylococcus aureus; for MBC: kills 99,9% of initial population
Description: as §1
In details, phenotypic methods based on in vitro MIC and MBC determination have been performed on previously isolated bacterial strains, identified and characterized at the level of their antibiotic susceptibility profile. According to MIC and MBC data, the Killing Rate was calculated as the ratio between MBC and MIC on which basis it is possible to define the compounds tested as bactericides (killing rate=1-4), or bacteriostatic (killing rate >4).
as §3
as §4, with “The 24 hours MIC is considered as the minimum drug concentration able to inhibit bacterial growth, which makes it possible to observe the absence of bacterial growth and the absence of turbidity.” left out, “incubation.” for “incubation. The MBC is evaluated as the minimum concentration of drug able to kill the 99,9% of the initial bacterial population.”
Bacterial strains: the bactericidal and/or bacteriostatic power of the synthesized compounds can be determined by using standard reference strains such as: • 1. S. Aureus ATCC 25923 res kan, tob, res streptogramine (sga-sgb, efflux), res mupirocina (at low level), res trimetoprim; • 2. S. Aureus strain 1 (collection) mec a+, res kan tob gen, res quinolones, lincosamides, res streptogramine (sga-sgb), mlsb+sa constituent, mlsb constituent, res mupirocine (low level), res trimetoprim; • 3. S. Aureus strain 2 (collection) acquired penicillinase, res kan tob, res streptogramine (sga-sgb, efflux), res mupirocine (low level), res trimetoprim; • 4. Enterococcus faecalis ATCC 51299 (str+gen res at high level, mlsb res, simil van b res); • 5. Enterococcus faecalis strain 1 (collection) (str+kan res at high level str res at high level tetracycline res); • 6. Enterococcus faecalis strain 2 (collection) (kan res at high level); • 7. E. coli of Collection: RESISTANT to ampicilline, amox+ac clav, ampicillinr+sulbactam, cefalexine, cefuroxime, cefuroxime axetil, cefixime, cefpodoxime, cefotaxime, ceftazidime, ceftriaxone, netilmicine, tobramicine, ciprofloxcine, trim/sulfametox, esbl pos, SENSITIVE to meropenem and gentamicine, INTERMEDIATE to amikacine; • 8. 8.

S. Aureus ATCC 25923 = assay: MIC/MBC broth-dilution (micromethod), CLSI; format: cell-based; settings: Staphylococcus aureus, ATCC25923, marked *: MIC value read at 48 hours
Description: as §1, §2, §3, §4, §5

[3] = tested on: Enterococcus faecalis strain 1 (collection); assay: MIC/MBC broth-dilution (micromethod), CLSI; format: cell-based; settings: E. FAECALIS strain 1, values without asterisk
Description: as §1, §2, §3, §4, §5

[4] = tested on: Enterococcus faecalis ATCC 51299; assay: MIC/MBC broth-dilution (micromethod), CLSI; format: cell-based; settings: ATCC51299, E. FAECALIS ATCC 51299, values without asterisk
Description: as §1, §2, §3, §4, §5

[5] = tested on: S. Aureus strain 2 (collection); assay: MIC/MBC broth-dilution (micromethod), CLSI; format: cell-based; settings: Staphylococcus aureus, marked *: MIC value read at 48 hours
Description: as §1, §2, §3, §4, §5

[6] = tested on: P. Aeruginosa of collection; assay: MIC/MBC broth-dilution (micromethod), CLSI; format: cell-based; settings: Pseudomonas aeruginosa
Description: as §1, §2, §3, §4, §5

[7] = E. FAECALIS strain 2, values without asterisk
[8] = marked *: MIC value read at 48 hours
[9] = E. FAECALIS strain 2, marked *: MIC value read at 48 hours

N#C/C=C/c1ccc(-c2ccc(O)c(C34CC5CC(CC(C5)C3)C4)c2)cc1 (mixture of isomers) [Compound 1]
MBC [1]: 128 µg/mL
MIC [1, 7]: 32 µg/mL
MBC [2]: 128 µg/mL
MIC [2, 8]: 64 to 128 µg/mL

OCC#Cc1ccc(-c2ccc(O)c(C34CC5CC(CC(C5)C3)C4)c2)cc1 [Compound 2, 3-(adamantan-1-yl)-4′-(3-hydroxyprop-1-yn-1-yl)-[1,1′-biphenyl]-4-ol]
MBC [1]: 2 to 4 µg/mL (≈ 5.58 to 11.2 µM)
MIC [1, 7]: 0.5 µg/mL (≈ 1.39 µM)
MBC [2]: 4 µg/mL (≈ 11.2 µM)
MIC ([2]; values without asterisk): 0.5 µg/mL (≈ 1.39 µM)

N#C/C(=C\c1ccc(-c2ccc(O)c(C34CC5CC(CC(C5)C3)C4)c2)cc1)C(=O)O [Compound 4]
MBC [1]: 4 µg/mL (≈ 10 µM)
MIC [1, 9]: 0.5 to 1 µg/mL (≈ 1.25 to 2.5 µM)
MBC [2]: 4 µg/mL (≈ 10 µM)
MIC ([2]; values without asterisk): 2 µg/mL (≈ 5.01 µM)

CC(C)(C)c1cc(-c2ccc(/C=C/C(=O)O)cc2)ccc1O [Compound 6, E-3-(3′-tert-Butyl-4′-hydroxybiphenyl-4-yl)acrylic Acid]
melting point: 218 °C
MIC ([2]; values without asterisk): 64 µg/mL (≈ 216 µM)

COc1ccc(-c2ccc(C#CC(=O)O)cc2)cc1C12CC3CC(CC(C3)C1)C2 [Compound 7, 4-(3-(1-adamantyl)-4-methoxyphenyl)propiolic acid]
MIC ([2]; values without asterisk): 16 µg/mL (≈ 41.4 µM)

O=C(O)/C=C/c1ccc(-c2ccc(OCC(=O)NO)c(C34CC5CC(CC(C5)C3)C4)c2)cc1 [Compound 9]
MIC ([2]; values without asterisk): 128 µg/mL (≈ 286 µM)

CC(Oc1ccc(-c2ccc(/C=C/C(=O)O)cc2)cc1C12CC3CC(CC(C3)C1)C2)C(=O)NO (stereo not drawn) [Compound 10]
MIC ([2]; values without asterisk): 32 µg/mL (≈ 69.3 µM)

O=C(O)C=Cc1ccc(-c2ccc(OCCCCO)c(C34CC5CC(CC(C5)C3)C4)c2)cc1 [Compound 11, 3-[3′-Adamantan-1-yl-4′-(hydroxy-butoxy)-biphenyl-4-yl]-acrylic acid]
MIC (S. Aureus ATCC 25923): 128 to 256 µg/mL (≈ 287 to 573 µM)
MIC [3]: 128 µg/mL (≈ 287 µM)
MIC [4]: 64 µg/mL (≈ 143 µM)
MIC [5]: 128 to 256 µg/mL (≈ 287 to 573 µM)
MIC [1, 7]: 128 µg/mL (≈ 287 µM)
MIC [2, 8]: 64 to 256 µg/mL (≈ 143 to 573 µM)

O=C(O)C=Cc1ccc(-c2ccc(O)c(C34CC5CC(CC(C5)C3)C4)c2)c(C=NOCC(=O)O)c1 [Compound 14, 3-[3′-Adamant-1-yl-4′-hydroxy-2-carboxymethoxyiminomethyl-biphenyl-4-yl]-acrylic acid]
MIC [1, 9]: 64 to 128 µg/mL (≈ 135 to 269 µM)
MIC [2, 8]: 64 to 128 µg/mL (≈ 135 to 269 µM)

N=C(N)NCc1cc(C=CC(=O)O)ccc1-c1ccc(O)c(C23CC4CC(CC(C4)C2)C3)c1.O=C(O)C(F)(F)F [Compound 15, 3-(3′-Adamantan-1-yl-2-guanidinomethyl-4′-hydroxy-biphenyl-4-yl)-acrylic acid trifluoroacetate]
MBC [1]: 32 to 64 µg/mL
MIC [1, 9]: 16 to 32 µg/mL
MBC [2]: 32 to 64 µg/mL
MIC [2, 8]: 16 to 32 µg/mL

O=C(O)C=Cc1ccc(-c2cc3c(c(C45CC6CC(CC(C6)C4)C5)c2)OCCO3)cc1 [Compound 16, 3-{4-[8-(Adamantan-1-yl)-2,3-dihydro-benzo[1,4]-dioxin-6-yl]-phenyl}-acrylic acid]
MIC [1, 9]: 1 to 2 µg/mL (≈ 2.4 to 4.8 µM)
MIC [2, 8]: 2 to 4 µg/mL (≈ 4.8 to 9.6 µM)

CC(=O)NCc1cc(-c2ccc(/C=C/C(=O)O)cc2)cc(C23CC4CC(CC(C4)C2)C3)c1O [Compound 17, E-3-[3′-(Acetylaminomethyl)-4′-hydroxy-5′-(adamantan-1-yl)biphenyl-4-yl]-acrylic acid]
MBC [1]: 16 µg/mL (≈ 35.9 µM)
MIC [1, 9]: 2 to 4 µg/mL (≈ 4.49 to 8.98 µM)
MBC [2]: 16 µg/mL (≈ 35.9 µM)
MIC [2, 8]: 4 to 8 µg/mL (≈ 8.98 to 18 µM)

O=C(O)/C=C/c1ccc(-c2cc(CNC(=O)Nc3ccccc3)c(O)c(C34CC5CC(CC(C5)C3)C4)c2)cc1 [Compound 18]
MBC [1]: 16 µg/mL (≈ 30.6 µM)
MIC [1, 9]: 2 to 4 µg/mL (≈ 3.83 to 7.65 µM)
MBC [2]: 8 µg/mL (≈ 15.3 µM)
MIC [2, 8]: 4 to 8 µg/mL (≈ 7.65 to 15.3 µM)

O=C(O)CCc1ccc(-c2ccc(O)c(C34CC5CC(CC(C5)C3)C4)c2)cc1 [Compound 19, 3-(3′-Adamantan-1-yl-4′-hydroxybiphenyl-4-yl)propionic Acid]
MBC [1]: 32 µg/mL (≈ 85 µM)
MIC [1, 9]: 8 to 16 µg/mL (≈ 21.2 to 42.5 µM)
MBC [2]: 16 µg/mL (≈ 42.5 µM)
MIC [2, 8]: 8 to 16 µg/mL (≈ 21.2 to 42.5 µM)

CCCCC/C=C\C/C=C\CCCCCCCC(=O)Oc1ccc(-c2ccc(/C=C/C(=O)O)cc2)cc1C12CC3CC(CC(C3)C1)C2 [Compound 20, (E)-Octadeca-9,12-dienoic acid 3-adamantan-1-yl-40-(2-carboxyvinyl)-biphenyl-4-yl ester]
MIC [6]: 20 µg/mL (≈ 31.4 µM)
MIC [1, 7]: 128 µg/mL (≈ 201 µM)
MIC [2, 8]: 8 to 32 µg/mL (≈ 12.6 to 50.2 µM)

O=Cc1cc(-c2ccc(/C=C/C(=O)O)cc2)cc(C23CC4CC(CC(C4)C2)C3)c1O [Compound 21, E-3-[3′-Formyl-4′-hydroxy-5′-(adamantan-1-yl)-biphenyl-4-yl]-acrylic acid]
MIC [1, 9]: 32 to 64 µg/mL (≈ 79.5 to 159 µM)
MIC [2, 8]: 16 to 64 µg/mL (≈ 39.8 to 159 µM)
